Data: US10047059B2, “Substituted quinoxalines for inhibiting kinase activity” (NEUPHARMA, INC., priority 2012, dated 2018)

Legend:
BRAF = biological target: T1, BRAF (Homo sapiens, UniProt P15056); assay: Z'-LYTE kinase inhibition assay against BRAF; format: biochemical; settings: Z'-LYTE method
T1 construct: purchased Invitrogen
Description: (§1) Inhibitory activities Inhibitory activities of compounds against BRAF, and BRAF V600E were measured by Invitrogen using Z′-LYTE® Method as briefly described in the following. 4× Test compounds are dissolved in 1% DMSO. […] ATP solutions are diluted to a 4×ATP working concentration in Kinase Buffer (50 mM HEPES pH 7.5, 0.01% BRIJ-35, 10 mM MgCl2, 1 mM EGTA). Reaction started by 30-second shaking of mixture consisting of 2.5 μL 4× test compound, […] and 2.5 μL 4×ATP Solution on Bar-coded Corning, low volume NBS, black 384-well plate (Corning Cat. #3676). Then the mixture was incubated for 60-minute at room temperature for the kinase reaction, followed by addition of 5 μL of a 1:1024 dilution of development reagent A and 30-second plate shake. The mixture was then incubated for another 60-minute at room temperature for development reaction. Fluorescence was read by plate reader. IC50 was calculated by plotting the concentration of compound vs the percentage of inhibition in treated wells using GraphPad Prism 5.
(§2) Table 2 and 3 show % inhibition at 1 μM of several compounds of the invention against BRAF and BRAF V600E, respectively, using Z′-LYTE® method.

BRAF V600E = biological target: T2, BRAF V600E (Homo sapiens, UniProt P15056, V600E); assay: Z'-LYTE kinase inhibition assay against BRAF V600E; format: biochemical; settings: Z'-LYTE method
T2 construct: purchased Invitrogen
T2 sequence (P15056 whole entry V600E): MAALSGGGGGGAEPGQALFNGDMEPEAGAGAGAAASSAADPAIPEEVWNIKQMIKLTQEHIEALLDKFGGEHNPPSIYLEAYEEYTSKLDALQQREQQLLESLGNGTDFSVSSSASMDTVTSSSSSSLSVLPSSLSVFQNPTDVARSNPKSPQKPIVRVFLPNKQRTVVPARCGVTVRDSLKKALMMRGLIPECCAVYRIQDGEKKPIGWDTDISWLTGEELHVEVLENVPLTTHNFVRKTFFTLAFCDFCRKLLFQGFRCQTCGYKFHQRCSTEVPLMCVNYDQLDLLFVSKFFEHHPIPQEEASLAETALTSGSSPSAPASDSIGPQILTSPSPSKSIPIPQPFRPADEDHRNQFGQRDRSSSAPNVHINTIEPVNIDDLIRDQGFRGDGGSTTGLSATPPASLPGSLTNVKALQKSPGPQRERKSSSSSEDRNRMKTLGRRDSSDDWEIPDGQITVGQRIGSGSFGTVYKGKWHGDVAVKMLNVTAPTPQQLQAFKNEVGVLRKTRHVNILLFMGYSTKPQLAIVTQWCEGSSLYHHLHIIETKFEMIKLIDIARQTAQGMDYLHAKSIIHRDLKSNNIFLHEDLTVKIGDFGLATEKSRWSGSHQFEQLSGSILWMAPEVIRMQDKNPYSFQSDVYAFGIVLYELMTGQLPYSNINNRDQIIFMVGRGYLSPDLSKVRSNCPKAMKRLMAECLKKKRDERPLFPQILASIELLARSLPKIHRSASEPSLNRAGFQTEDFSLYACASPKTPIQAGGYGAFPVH
Description: as §1, §2
The scale utilized in Table 4 is as follows: +++ less than 100 nM; and ++ greater than 100 nM.

KDR (VEGFR2) = biological target: T3, KDR (VEGFR2) (Homo sapiens, UniProt P35968); assay: Z'-LYTE kinase inhibition assay against KDR; format: biochemical; settings: Z'-LYTE method
T3 construct: purchased Invitrogen
T3 sequence (P35968 20-1356): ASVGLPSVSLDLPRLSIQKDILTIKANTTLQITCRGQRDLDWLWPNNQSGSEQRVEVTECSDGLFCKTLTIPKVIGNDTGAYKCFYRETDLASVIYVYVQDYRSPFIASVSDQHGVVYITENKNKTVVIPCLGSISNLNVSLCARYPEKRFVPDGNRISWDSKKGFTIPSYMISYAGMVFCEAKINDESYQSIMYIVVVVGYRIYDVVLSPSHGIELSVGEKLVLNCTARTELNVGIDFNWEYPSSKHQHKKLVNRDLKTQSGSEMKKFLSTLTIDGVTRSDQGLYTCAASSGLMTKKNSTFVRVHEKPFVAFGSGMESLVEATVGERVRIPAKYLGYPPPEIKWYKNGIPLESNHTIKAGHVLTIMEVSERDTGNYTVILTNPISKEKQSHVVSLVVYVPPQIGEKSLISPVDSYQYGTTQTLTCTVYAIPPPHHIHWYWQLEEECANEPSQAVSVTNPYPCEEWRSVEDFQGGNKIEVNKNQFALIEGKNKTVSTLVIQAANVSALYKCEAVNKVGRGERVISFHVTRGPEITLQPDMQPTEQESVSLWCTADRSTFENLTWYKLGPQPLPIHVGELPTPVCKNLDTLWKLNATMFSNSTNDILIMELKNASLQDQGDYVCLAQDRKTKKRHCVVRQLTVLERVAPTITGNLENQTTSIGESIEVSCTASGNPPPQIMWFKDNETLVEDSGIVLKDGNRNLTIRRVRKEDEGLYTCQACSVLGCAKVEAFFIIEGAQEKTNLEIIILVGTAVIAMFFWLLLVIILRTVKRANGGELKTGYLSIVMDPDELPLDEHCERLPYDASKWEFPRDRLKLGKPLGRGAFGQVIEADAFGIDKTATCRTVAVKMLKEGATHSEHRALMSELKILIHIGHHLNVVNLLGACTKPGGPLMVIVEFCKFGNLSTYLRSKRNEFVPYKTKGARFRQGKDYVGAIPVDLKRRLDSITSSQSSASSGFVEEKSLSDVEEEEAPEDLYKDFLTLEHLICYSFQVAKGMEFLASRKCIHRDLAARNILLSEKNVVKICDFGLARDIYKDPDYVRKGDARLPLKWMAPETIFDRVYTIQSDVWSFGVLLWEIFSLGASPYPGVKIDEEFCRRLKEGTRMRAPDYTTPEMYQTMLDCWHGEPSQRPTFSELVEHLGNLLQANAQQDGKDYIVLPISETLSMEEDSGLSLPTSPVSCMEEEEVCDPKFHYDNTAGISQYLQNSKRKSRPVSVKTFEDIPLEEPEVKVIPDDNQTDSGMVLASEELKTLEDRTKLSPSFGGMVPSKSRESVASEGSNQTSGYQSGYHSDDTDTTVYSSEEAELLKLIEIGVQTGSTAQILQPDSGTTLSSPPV
Description: Inhibitory activities of compounds against KDR (VEGFR2) were also measured by Invitrogen using Z′-LYTE® Method as described above with the following modification. The 2×KDR (VEGFR2)/Tyr 01 mixture is prepared in 50 mM HEPES pH 7.5, 0.01% BRIJ-35, 10 mM MgCl2, 1 mM EGTA. The final 10 μL Kinase Reaction consists of 0.5-11.7 ng KDR (VEGFR2) and 2 μM Tyr 01 in 50 mM HEPES pH 7.5, 0.01% BRIJ-35, 10 mM MgCl2, 1 mM EGTA. After the 1 hour Kinase Reaction incubation, 5 μL of a 1:256 dilution of Development Reagent B is added.
The scale utilized in Table 6 is as follows: +++ less than 100 nM; and ++ greater than 100 nM

A375 cells = assay: Inhibition of cancer cell growth, MTT or MTS assay, A375; format: cell-based; settings: Homo sapiens, A-375, 72 h incubation
Description: (§3) Inhibition of cell growth by compounds was measured using MTT or MTS assay. Tumor cell lines were purchased from ATCC (American Type Culture Collection, Manassas, Va.). All cell lines were maintained in RPMI 1640 (Hyclone) supplemented with 10% fetal bovine serum (FBS, Hyclone), glutamine (2 mM, Hyclone), and antibiotics (penicillin 100 U/mL and streptomycin 50 μg/mL) at 37° C. in a humidified atmosphere of 5% CO2 in air. Taxol (as a positive control, Sigma) and compounds were dissolved in DMSO (Sigma), and the final concentration of DMSO in the medium was 1%. Tumor cells were plated in 96-well plates at densities of about 2000 (A375) or 4000 (A549 and Colo205) cells/well of a 96-well plate and allowed to adhere/grow for 24 h. They were then treated with various concentrations of drug and incubated for 72 h. For MTT method, medium was then removed by inverting and tapping the plates. 100 μL of MTT (0.5 mg/ml) was added to each well followed by an incubated at 37° C. for 4 h. MTT was then removed and 200 μL of DMSO was added to each well, and the ODs at 570 nm were measured after a 5 second shaking cycle in a 96-well spectrophotometer. For MTS method, 20 μL MTS (CellTiter 96 Aqueous One Solution, Promega) was added to each well followed by an incubated at 37° C. for 2-4 h, solutions were then directly put in a 96-well spectrophotometer, and the ODs at 490 nm were measured.
(§4) All concentrations of compounds were tested in triplicate and controls were averaged over 4 wells. IC50 was calculated by plotting the concentration of compound vs the percentage of inhibition in treated wells using GraphPad Prism 5. […] The scale utilized in Tables 7-9 is as follows: +++ less than 1000 nM; ++ between 1000 nM and 5000 nM; and + greater than 5000 nM. The scale utilized in […]

A549 cells = assay: Inhibition of cancer cell growth, MTT or MTS assay, A549; format: cell-based; settings: Homo sapiens, 72 h incubation
Description: as §3, §4

Colo205 cells = assay: Inhibition of cancer cell growth, MTT or MTS assay, Colo205; format: cell-based; settings: Homo sapiens, COLO 205, 72 h incubation
Description: as §3, §4

Colo205 tumor xenograft = assay: Inhibition of tumor growth in Colo205 tumor xenograft model; format: in vivo, BALB/c female nude mice; settings: 30 mg/kg, qd X 21, i.p.
Description: Cells were implanted in BALB/c female nude mice and grown as tumor xenografts. When tumors achieved 150-250 mm^3, mice were assigned into treatment and control groups using randomized block design based upon their tumor volumes. Each group contained 6 tumor-bearing mice. Tumors were measured twice weekly in two dimensions using a caliper, and the tumor volume was calculated from two-dimensional measurements using the equation V=0.5×a×b^2 where a and b are the long and short diameters of the tumor, respectively. Relative tumor volume (RTV) was defined as TVt/TVi, the ratio of the volume on a given day (TVt) and the volume at the start of treatment (TVi). Relative tumor growth rate (T/C) was defined as RTVT/RTVC, the ratio of relative tumor volume of treatment group (RTVT) and relative tumor volume of control group (RTVC) on a given day. Inhibition of tumor growth in a Colo205 tumor xenograft model is shown below in Table 10 for compound C14.

T1 sequence (P15056 whole entry): as the sequence (P15056 whole entry V600E) above, with E600V counted along it

| Structure (SMILES) | inhibition at 1 µM (BRAF) [%] | inhibition at 1 µM (BRAF V600E) [%] | IC50 (BRAF V600E) [nM] | inhibition at 1 µM (KDR (VEGFR2)) [%] | IC50 (KDR (VEGFR2)) [nM] | IC50 (A375 cells) [nM] | IC50 (A549 cells) [nM] | IC50 (Colo205 cells) [nM] | T/C (relative tumor growth rate) (Colo205 tumor xenograft) [%] | Tumor Volume Post-treatment (Colo205 tumor xenograft) [mm3] | Tumor Volume Pre-treatment (Colo205 tumor xenograft; baseline) [mm3] |
| --- | --- | --- | --- | --- | --- | --- | --- | --- | --- | --- | --- |
| O=C(Nc1ccc(C(=O)c2ccc3ncc(N4CCNCC4)nc3c2)cc1)Nc1ccc(F)c(C(F)(F)F)c1 [Compound C14, 1-(4-fluoro-3-(trifluoromethyl)phenyl)-3-(4-(3-(piperazin-1-yl)quinoxaline-6-carbonyl)phenyl)urea] | < 70 | > 89 | > 100 | > 89 | > 100 | < 1000 | < 1000 | < 1000 | 65 | 1016 | 233 |
| N#Cc1ccc(NC(=O)Nc2ccc(C(=O)c3ccc4ncc(N5CCNCC5)nc4c3)cc2)cc1C(F)(F)F [Compound C16, 1-(4-cyano-3-(trifluoromethyl)phenyl)-3-(4-(3-(piperazin-1-yl)quinoxaline-6-carbonyl)phenyl)urea] | < 70 | > 89 | – | > 89 | > 100 | < 1000 | 1000 to 5000 | > 5000 | – | – | – |
| O=C(Nc1cccc(C(F)(F)F)c1)Nc1ccc(C(=O)c2ccc3ncc(N4CCNCC4)nc3c2)c(F)c1 [Compound C21, 1-(3-fluoro-4-(3-(piperazin-1-yl)quinoxaline-6-carbonyl)phenyl)-3-(3-(trifluoromethyl)phenyl)urea] | < 70 | > 89 | – | > 89 | < 100 | < 1000 | < 1000 | 1000 to 5000 | – | – | – |
| O=C(Nc1ccc(C(=O)c2ccc3nccnc3c2)cc1)Nc1cccc(C(F)(F)F)c1 [Compound C01, 1-(4-(quinoxaline-6-carbonyl)phenyl)-3-(3-(trifluoromethyl)phenyl)urea] | < 70 | > 89 | – | < 70 | – | 1000 to 5000 | > 5000 | > 5000 | – | – | – |
